Here are results for six compounds from ChEMBL document CHEMBL1201862, “PubChem BioAssay data set” (2004).

Assay [1] deals with Epstein-Barr nuclear antigen 1 (Epstein-Barr virus (strain B95-8) (HHV-4) (Human herpesvirus 4), UniProt P03211). As to the kind of experiment: inhibition of EBV nuclear antigen 1 DNA binding – biochemical, fluorescence polarization, 1536-well, dose response (AID 2381).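 Note: fluorescence polarization of a Cy5 DNA probe bound by EBNA-1 protein.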 Further details: species or system human gammaherpesvirus 4.
Assay [2] concerns the target Lytic switch protein BZLF1 (Epstein-Barr virus (strain B95-8) (HHV-4) (Human herpesvirus 4), UniProt P03206). As to the kind of experiment: inhibition of BZLF1 ZTA DNA binding – biochemical, fluorescence polarization, Epstein-Barr virus, 1536-well, counter-screen for EBNA-1 inhibitor project, dose response (AID 2377).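 Note: fluorescence polarization of Cy5-labelled ZRE DNA probe bound by purified Zta.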 Further details: species or system human gammaherpesvirus 4.

Assay [3] concerns the target 72 kDa type IV collagenase (Homo sapiens, UniProt P08253). As to the kind of experiment: Dose Response validation of uHTS RPN11 inhibitor hits using a MMP-2 Fluorescence assay. It is filed as functional.
The target of assay [4] is 26S proteasome non-ATPase regulatory subunit 14 (Homo sapiens, UniProt O00487). In words: inhibition of proteasome subunit RPN11 – biochemical, fluorescence polarization, uHTS hits, confirmation (AID 602368). It is filed as functional. In general terms: Fluorescence polarisation rises when a labelled molecule tumbles more slowly, as on binding a larger partner.
In a further assay the target is Ephrin type-A receptor 4 (Mus musculus, UniProt Q03137). In words: EphA4 ligand-binding antagonists – biochemical, colorimetric, mouse EphA4, primary screen (AID 689). It counts as functional.
For assay [5], the target named is Peroxisome proliferator-activated receptor gamma/Nuclear receptor coactivator 3 (Homo sapiens, UniProt P37231). As to the kind of experiment: TR-FRET dose response biochemical High Throughput Screening assay for agonists of the steroid receptor coactivator 3 (SRC-3) recruitment by the peroxisome proliferator-activated receptor gamma (PPAR gamma): non-selective agonists. [Related pubchem assays: 1301 (Confirmation screen.), 1048 (Primary screen.)]. It is filed as functional. In general terms: TR-FRET usually uses a lanthanide donor and a delayed reading to cut background.

The next assay concerns the target Nonstructural protein 1 (Influenza A virus, UniProt Q194T2). It counts as functional, Influenza A virus (A/California/07/2009(H1N1)).
The next assay deals with Prothrombin (Bos taurus, UniProt P00735). In words: thrombin protease inhibitors – biochemical, fluorescence polarization, uHTS hits, dose response (AID 602369). It counts as functional.
Assay [6] addresses Peroxisome proliferator-activated receptor gamma/Nuclear receptor coactivator 2 (Homo sapiens, UniProt P37231). In words: TR-FRET dose response biochemical High Throughput Screening assay for agonists of the steroid receptor coactivator 2 (SRC-2) recruitment by the peroxisome proliferator-activated receptor gamma (PPAR gamma): non-selective agonists. [Related pubchem assays: 1297, 1032 ]. It counts as functional.

Assay [7] deals with Peroxisome proliferator-activated receptor gamma/Nuclear receptor coactivator 1 (Homo sapiens, UniProt P37231). As to the kind of experiment: TR-FRET dose response biochemical High Throughput Screening assay for agonists of the steroid receptor coactivator 1 (SRC-1) recruitment by the peroxisome proliferator-activated receptor gamma (PPAR gamma): non-selective agonists. [Related pubchem assays (depositor defined):AID1300, AID1808, AID504735, AID631]. It counts as protein assay.

For assay [8], the target named is T1, Corticotropin-releasing factor receptor 2/Corticotropin-releasing factor-binding protein (Homo sapiens, UniProt P24387+Q13324).
T1 sequence (Q13324 whole entry): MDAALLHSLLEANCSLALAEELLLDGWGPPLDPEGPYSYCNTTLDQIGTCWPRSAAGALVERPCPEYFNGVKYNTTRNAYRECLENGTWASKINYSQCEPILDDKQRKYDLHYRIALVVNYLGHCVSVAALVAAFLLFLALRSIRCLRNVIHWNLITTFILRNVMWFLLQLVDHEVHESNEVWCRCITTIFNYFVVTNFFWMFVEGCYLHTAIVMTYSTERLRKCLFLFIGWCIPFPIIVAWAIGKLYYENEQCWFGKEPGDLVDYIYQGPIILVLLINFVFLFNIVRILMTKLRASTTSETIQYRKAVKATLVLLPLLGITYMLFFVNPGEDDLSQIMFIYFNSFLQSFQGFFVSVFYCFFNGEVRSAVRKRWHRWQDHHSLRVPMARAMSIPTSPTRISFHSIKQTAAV
T1 sequence (P24387 whole entry): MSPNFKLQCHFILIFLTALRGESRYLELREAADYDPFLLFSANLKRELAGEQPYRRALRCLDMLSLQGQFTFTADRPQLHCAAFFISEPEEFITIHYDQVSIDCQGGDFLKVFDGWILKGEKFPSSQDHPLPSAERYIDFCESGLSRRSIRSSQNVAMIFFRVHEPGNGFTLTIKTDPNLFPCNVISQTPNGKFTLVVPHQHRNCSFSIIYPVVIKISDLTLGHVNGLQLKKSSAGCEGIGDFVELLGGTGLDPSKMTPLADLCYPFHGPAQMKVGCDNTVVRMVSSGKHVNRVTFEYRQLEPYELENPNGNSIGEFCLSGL
In words: activators of CRF receptor 2 with binding protein – uHTS hits, confirmation (AID 602473). It is filed as functional. The settings on record: read-out: EC50_Mean.

For assay [9], the target named is T1, Corticotropin-releasing factor receptor 2/Corticotropin-releasing factor-binding protein. In words: Dose Response confirmation of uHTS hits for small molecule antagonists of the CRF-binding protein and CRF-R2 receptor complex. It counts as functional. The settings on record: read-out: IC50_Mean.
The target of assay [10] is T2, E3 ubiquitin-protein ligase XIAP (Homo sapiens, UniProt P98170). As to the kind of experiment: small molecules displacing peptide from XIAP – biochemical, IAP family, fluorescence polarization (AID 1018). It is filed as functional.
The target in assay [11] is T2, E3 ubiquitin-protein ligase XIAP. In words: Counter Screen using XIAP-Bir3 for Chemical Antagonists of Bir1/2 domains of IAP-family anti-apoptotic proteins. [Related pubchem assays (depositor defined):AID1018, AID1449, AID1514, AID1638, AID1749, AID1750, AID488957, AID488963]. A general note: Counterscreens check selectivity or assay interference.
The next assay has as its target T3, Estrogen receptor (Homo sapiens, UniProt P03372).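 Note: potency for inhibiting coactivator peptide recruitment to the receptor.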
T3 sequence (P03372 whole entry): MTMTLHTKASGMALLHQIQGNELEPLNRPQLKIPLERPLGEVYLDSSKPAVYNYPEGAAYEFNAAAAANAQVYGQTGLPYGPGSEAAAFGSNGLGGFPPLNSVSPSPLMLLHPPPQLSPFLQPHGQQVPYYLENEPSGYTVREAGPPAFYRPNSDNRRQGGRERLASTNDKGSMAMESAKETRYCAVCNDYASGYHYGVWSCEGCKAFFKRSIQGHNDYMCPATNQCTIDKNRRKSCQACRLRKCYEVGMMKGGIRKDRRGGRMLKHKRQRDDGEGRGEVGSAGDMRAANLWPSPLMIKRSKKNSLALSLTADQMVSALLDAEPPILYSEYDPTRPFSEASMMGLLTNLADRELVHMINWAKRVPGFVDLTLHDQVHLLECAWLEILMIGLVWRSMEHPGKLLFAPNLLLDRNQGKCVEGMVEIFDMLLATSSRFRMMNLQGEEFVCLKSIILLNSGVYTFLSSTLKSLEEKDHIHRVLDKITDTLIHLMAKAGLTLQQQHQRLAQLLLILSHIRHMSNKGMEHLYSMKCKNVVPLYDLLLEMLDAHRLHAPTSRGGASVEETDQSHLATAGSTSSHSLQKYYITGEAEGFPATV

Assay [12] deals with BJ. As to the kind of experiment: cells. It counts as functional, cell-based. The settings on record: Homo sapiens.
The next assay concerns HT-1080. As to the kind of experiment: HT1080 cell viability loss – fluorescence readout (AID 620). It counts as functional, cell-based. The settings on record: Homo sapiens.
Another assay is described as follows: cells. It counts as functional, cell-based.
The test system of assay [13] is BJ. In words: BJ-TERT fibroblast viability loss – cell-based, RAS-independent, luminescence, dose response (AID 1933). It is filed as functional. The settings on record: Homo sapiens.
The target in assay [14] is Luciferin 4-monooxygenase (Photinus pyralis, UniProt P08659). As to the kind of experiment: Counter Screen for Luciferase-based Assay Positives. [Related pubchem assays: 620, 618, 411 ].
A further assay has as its system HEK293. In words: EBV LMP1 TES2 canonical NF-kB signalling blockers – cell-based, HEK293, luciferase, cherry-pick, dose response (AID 588343). It counts as functional. The settings on record: Homo sapiens.
The nature of assay [15]: DRD fibroblast viability loss – cell-based, non-viral oncogenic, luminescence, dose response (AID 1934). It is filed as functional. The settings on record: Homo sapiens.
For assay [16], the system named is BJ. As to the kind of experiment: BJ-TERT-LT-ST fibroblast viability loss – cell-based, RAS-independent, luminescence, dose response (AID 1935).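 Note: BJ fibroblasts immortalized with TERT plus LT and ST oncogenes.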 The settings on record: Homo sapiens. It counts as functional.
Assay [17] addresses T4, Nuclear receptor subfamily 0 group B member 1 (Homo sapiens, UniProt P51843).
T4 sequence (P51843 whole entry): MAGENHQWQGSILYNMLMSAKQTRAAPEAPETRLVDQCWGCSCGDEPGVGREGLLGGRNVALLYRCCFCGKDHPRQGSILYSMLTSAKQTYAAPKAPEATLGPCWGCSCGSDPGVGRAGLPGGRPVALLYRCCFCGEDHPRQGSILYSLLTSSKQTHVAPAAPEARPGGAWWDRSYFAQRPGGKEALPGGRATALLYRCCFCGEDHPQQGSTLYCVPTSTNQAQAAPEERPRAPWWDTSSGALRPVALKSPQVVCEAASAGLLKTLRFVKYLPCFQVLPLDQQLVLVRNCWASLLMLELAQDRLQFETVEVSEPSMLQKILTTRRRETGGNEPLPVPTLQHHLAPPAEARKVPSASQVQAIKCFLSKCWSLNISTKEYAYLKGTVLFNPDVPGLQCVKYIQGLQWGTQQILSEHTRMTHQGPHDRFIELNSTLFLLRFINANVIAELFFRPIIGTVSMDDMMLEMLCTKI
It counts as functional, cell-based.

Assay [18] deals with Vero. As to the kind of experiment: cells. It is filed as functional. The settings on record: Chlorocebus sabaeus.
Assay [19] addresses T5, Sphingosine 1-phosphate receptor 4 (Homo sapiens, UniProt O95977).
T5 sequence (O95977 whole entry): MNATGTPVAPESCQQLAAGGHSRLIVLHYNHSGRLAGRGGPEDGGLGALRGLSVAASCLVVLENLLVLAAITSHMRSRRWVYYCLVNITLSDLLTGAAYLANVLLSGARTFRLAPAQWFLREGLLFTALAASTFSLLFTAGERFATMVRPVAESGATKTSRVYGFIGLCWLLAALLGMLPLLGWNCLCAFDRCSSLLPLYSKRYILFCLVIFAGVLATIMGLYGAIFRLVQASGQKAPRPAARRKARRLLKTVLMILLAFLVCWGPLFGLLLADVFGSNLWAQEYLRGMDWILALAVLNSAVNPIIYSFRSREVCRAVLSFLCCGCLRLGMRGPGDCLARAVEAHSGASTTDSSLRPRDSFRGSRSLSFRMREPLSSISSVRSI
In words: Fluorescence dose response cell-based high throughput screening assay for antagonists of the Sphingosine 1-Phosphate Receptor 4 (S1P4). [Related pubchem assays: 1524 (Confirmation in triplicates.), 1510 (Primary screen.)]. It is filed as functional.

Assay [20] deals with Sphingosine 1-phosphate receptor 1 (Homo sapiens, UniProt P21453). It is filed as functional.
The test system of assay [21] is Vero. In words: cells. It is filed as functional, cell-based. The settings on record: Chlorocebus sabaeus.

Activity calls are given as the source filed them.

T2 sequence (P98170 whole entry): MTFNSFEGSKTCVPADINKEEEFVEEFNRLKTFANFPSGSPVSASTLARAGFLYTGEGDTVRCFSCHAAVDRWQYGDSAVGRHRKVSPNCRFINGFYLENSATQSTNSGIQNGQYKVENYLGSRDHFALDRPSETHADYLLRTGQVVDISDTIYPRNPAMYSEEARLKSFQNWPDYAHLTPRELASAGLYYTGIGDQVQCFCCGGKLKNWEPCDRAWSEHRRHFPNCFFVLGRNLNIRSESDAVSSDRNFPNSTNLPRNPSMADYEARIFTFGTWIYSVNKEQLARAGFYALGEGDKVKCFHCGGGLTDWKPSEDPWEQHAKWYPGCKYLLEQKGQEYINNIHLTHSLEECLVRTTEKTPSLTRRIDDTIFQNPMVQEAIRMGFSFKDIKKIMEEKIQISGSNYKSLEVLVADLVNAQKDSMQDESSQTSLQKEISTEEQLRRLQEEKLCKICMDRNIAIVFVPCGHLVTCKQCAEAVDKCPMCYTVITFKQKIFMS
Sequence of Peroxisome proliferator-activated receptor gamma/Nuclear receptor coactivator 3 (P37231 whole entry): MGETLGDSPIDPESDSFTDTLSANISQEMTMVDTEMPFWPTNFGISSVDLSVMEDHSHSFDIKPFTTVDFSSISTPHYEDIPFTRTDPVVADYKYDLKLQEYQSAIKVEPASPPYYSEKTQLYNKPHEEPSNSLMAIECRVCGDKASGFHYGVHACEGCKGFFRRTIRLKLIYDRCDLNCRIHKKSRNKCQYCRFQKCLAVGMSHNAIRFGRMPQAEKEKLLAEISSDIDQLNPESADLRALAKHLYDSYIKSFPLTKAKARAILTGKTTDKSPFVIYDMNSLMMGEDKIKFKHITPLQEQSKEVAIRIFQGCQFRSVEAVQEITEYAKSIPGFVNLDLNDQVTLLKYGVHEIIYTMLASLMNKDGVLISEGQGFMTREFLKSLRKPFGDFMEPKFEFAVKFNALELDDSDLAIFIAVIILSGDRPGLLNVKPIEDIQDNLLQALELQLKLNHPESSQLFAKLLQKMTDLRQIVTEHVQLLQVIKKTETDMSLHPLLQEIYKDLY
Sequence of Peroxisome proliferator-activated receptor gamma/Nuclear receptor coactivator 3 (Q9Y6Q9 whole entry, further chain): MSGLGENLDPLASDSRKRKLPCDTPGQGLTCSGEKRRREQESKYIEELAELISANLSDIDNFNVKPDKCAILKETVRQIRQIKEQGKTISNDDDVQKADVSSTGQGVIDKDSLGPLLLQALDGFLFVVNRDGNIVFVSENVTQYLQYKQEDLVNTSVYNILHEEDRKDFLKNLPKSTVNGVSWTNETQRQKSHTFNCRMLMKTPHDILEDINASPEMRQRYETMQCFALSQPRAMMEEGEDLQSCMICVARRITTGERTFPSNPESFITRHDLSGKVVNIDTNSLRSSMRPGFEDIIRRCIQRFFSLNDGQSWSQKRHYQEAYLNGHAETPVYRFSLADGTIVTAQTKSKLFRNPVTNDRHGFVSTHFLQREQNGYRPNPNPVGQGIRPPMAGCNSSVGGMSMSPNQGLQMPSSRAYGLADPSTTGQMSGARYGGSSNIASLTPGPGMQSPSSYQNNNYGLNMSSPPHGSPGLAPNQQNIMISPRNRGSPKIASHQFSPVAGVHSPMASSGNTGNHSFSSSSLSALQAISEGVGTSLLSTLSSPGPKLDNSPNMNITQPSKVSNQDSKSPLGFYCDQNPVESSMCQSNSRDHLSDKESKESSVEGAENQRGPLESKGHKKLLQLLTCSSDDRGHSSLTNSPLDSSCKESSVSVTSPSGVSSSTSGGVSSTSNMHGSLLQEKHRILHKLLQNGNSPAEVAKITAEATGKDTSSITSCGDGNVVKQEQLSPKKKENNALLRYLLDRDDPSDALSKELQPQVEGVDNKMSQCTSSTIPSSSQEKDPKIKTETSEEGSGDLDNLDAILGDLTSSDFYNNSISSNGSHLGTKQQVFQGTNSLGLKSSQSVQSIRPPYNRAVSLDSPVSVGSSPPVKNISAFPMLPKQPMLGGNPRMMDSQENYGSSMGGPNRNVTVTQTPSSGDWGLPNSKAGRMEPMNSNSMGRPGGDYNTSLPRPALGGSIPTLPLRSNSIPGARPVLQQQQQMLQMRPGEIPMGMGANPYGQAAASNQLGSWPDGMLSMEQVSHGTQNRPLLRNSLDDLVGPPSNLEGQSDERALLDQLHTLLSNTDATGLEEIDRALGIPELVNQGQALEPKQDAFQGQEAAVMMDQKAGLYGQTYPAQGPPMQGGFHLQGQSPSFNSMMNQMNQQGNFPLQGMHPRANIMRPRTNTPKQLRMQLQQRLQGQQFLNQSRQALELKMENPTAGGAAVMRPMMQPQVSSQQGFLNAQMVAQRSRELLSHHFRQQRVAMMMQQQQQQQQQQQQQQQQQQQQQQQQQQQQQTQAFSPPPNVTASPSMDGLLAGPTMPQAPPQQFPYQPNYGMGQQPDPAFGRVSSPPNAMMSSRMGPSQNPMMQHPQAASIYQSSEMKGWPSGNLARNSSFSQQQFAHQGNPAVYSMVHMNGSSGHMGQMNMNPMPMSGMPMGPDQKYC
Sequence of Peroxisome proliferator-activated receptor gamma/Nuclear receptor coactivator 2 (P37231 whole entry): as the sequence (P37231 whole entry) above
Sequence of Peroxisome proliferator-activated receptor gamma/Nuclear receptor coactivator 2 (Q15596 whole entry, further chain): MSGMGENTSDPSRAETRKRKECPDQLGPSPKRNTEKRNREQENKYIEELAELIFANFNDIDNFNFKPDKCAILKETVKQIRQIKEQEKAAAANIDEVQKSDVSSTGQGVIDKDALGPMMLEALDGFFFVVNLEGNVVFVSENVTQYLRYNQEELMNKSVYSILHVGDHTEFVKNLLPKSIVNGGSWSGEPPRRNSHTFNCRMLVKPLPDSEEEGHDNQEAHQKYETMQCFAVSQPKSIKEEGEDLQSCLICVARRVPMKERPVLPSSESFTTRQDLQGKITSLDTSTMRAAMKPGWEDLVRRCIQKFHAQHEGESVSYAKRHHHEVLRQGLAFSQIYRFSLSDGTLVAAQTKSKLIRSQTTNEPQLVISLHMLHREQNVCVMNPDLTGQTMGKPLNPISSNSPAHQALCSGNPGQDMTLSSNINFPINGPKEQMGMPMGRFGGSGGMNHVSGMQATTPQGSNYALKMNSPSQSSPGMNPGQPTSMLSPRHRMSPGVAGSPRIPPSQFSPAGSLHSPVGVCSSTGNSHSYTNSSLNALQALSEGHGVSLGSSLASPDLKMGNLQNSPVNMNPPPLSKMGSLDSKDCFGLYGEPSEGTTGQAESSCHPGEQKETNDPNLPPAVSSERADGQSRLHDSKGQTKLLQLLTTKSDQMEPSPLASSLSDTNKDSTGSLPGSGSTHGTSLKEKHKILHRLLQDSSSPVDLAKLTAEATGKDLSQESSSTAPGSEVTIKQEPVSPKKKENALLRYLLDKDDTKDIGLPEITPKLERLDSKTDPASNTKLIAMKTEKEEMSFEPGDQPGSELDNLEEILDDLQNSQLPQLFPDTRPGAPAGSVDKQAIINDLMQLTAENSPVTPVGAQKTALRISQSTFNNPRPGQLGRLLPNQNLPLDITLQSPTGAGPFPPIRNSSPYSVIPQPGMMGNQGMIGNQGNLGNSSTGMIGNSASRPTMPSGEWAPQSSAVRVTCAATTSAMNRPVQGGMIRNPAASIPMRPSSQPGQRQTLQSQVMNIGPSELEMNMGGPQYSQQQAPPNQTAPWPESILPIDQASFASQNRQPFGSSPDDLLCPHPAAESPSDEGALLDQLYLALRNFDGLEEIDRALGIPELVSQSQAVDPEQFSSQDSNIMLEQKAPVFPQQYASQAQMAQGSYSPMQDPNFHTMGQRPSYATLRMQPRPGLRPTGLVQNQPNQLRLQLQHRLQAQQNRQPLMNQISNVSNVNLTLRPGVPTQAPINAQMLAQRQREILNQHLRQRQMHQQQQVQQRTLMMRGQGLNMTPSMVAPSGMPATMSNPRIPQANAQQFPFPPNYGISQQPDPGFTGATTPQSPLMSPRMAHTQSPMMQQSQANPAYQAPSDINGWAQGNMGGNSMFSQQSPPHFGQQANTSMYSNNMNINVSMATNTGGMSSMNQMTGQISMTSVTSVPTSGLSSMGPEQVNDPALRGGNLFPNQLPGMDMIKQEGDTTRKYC
Sequence of Epstein-Barr nuclear antigen 1 (P03211 whole entry): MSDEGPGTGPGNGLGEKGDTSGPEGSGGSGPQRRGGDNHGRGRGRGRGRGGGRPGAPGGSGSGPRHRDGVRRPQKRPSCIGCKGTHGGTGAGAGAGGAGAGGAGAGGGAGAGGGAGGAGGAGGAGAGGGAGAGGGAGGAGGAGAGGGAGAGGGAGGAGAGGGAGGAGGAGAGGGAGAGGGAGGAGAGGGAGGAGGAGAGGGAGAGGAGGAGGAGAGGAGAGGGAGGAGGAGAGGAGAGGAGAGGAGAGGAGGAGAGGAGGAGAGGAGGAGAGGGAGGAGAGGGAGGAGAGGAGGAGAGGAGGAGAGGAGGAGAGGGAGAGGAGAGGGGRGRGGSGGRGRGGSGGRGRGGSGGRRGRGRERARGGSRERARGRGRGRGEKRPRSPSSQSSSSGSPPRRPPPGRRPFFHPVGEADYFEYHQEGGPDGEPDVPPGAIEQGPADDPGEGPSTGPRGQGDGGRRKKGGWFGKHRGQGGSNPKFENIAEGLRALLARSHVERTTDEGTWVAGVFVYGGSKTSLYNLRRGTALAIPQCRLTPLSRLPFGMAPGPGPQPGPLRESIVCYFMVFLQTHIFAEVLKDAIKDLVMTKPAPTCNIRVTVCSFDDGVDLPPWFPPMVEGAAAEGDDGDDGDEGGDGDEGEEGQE

As for `COc1ccc(C(=O)CSc2nnc(NC(=O)C3CC(=O)N(c4cccc(OC)c4)C3)s2)cc1` (stereo not drawn), the IC50 in assay [1] was 5.9 µM (active); in assay [2], > 111 µM (not active).
On to `CN(C)c1ccc(/C=C/C=C2/SC(=S)N(c3ccccc3)C2=O)cc1`, for which the IC50 in assay [3] is > 100 µM (inactive); in assay [4] it was 0.703 µM (active); on Ephrin type-A receptor 4 it was 0.6 µM (active); on Nonstructural protein 1 it was 5.48 µM (active); on Prothrombin, 0.529 µM (active). The EC50 is > 79.4 µM (not active) in assay [5], > 79.4 µM (not active) in assay [6] and > 79.4 µM (inactive) in [7].
For the compound `COc1ccc(Cl)cc1NC(=O)CNc1ccccc1F`, in [8], the EC50 was > 53 µM (inactive). Besides, the IC50 is > 47.1 µM (inactive) in [9], > 100 µM (not active) in [10] and > 100 µM (inactive) in assay [11].
Consider `Cc1nnc(NC(=O)CSc2nc3c(c(=O)n2CCc2ccccc2)SC(C)C3)s1` (stereo not drawn), for which the IC50 at Estrogen receptor is 17.5 µM (active).
As to `c1ccc(C2=NN=C(NC3CC3)SC2)cc1`, the EC50 is 12.4 µM (inconclusive) in the assay on BJ [12]; > 50 µM (not active) with HT-1080; 13.1 µM (active) in the assay on BJ [13]; 1.24 µM (active) in assay [14]; 10.5 µM (active) in assay [15]; > 150 µM (inconclusive) in the assay on BJ [16]. Besides, the IC50 (in the assay “cells”; in assay [17]) was > 67.6 µM (inactive) each time. Moreover, the AC50 (as a rule, the concentration giving half of the maximal activity seen) with HEK293 is 2.58 µM (active).
As to `O=C(/C=C/c1ccccc1)CC(O)(c1ccccc1)C(F)(F)F` (stereo not drawn), the CC50 (commonly the concentration at which the toxic effect on the cells reaches its halfway point) in the assay on Vero [18] is 13.6 µM (active). Also, the IC50 in assay [19] is 1.97 µM (active); in [20], 25.9 µM (not active); with Vero [21], > 25 µM (active).
